From ChEMBL document CHEMBL1201862, “PubChem BioAssay data set” (2004)
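How tested: cells in 96-well plates exposed to compound for 48 hours at five concentrations. GI50: concentration for 50% inhibition of growth.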 The source made the active and inactive calls. Cut-off read from the data, not from the text of the source: active = GI50 up to about 1.1 µM and inactive = higher.

Legend:
Assay in all cases: NCI-60 cell line screen, 48 h
786-0 = tested on: 786-0
A498 = tested on: A498
A549 = tested on: A549
ACHN = tested on: ACHN
BT-549 = tested on: BT-549
CAKI-1 = tested on: CAKI-1
CCRF-CEM = tested on: CCRF-CEM
COLO 205 = tested on: COLO 205
DU-145 = tested on: DU-145
EKVX = tested on: EKVX
HCC 2998 = tested on: HCC 2998
HCT-116 = tested on: HCT-116
HL-60 = tested on: HL-60
HOP-62 = tested on: HOP-62
HOP-92 = tested on: HOP-92
HT-29 = tested on: HT-29
Hs-578T = tested on: Hs-578T
IGROV-1 = tested on: IGROV-1
K562 = tested on: K562
KM12 = tested on: KM12
LOX IMVI = tested on: LOX IMVI
M14 = tested on: M14
MCF7 = tested on: MCF7
MDA-MB-231 = tested on: MDA-MB-231
MDA-MB-435 = tested on: MDA-MB-435
MDA-N = tested on: MDA-N
MOLT-4 = tested on: MOLT-4
Malme-3M = tested on: Malme-3M
NCI-H226 = tested on: NCI-H226
NCI-H23 = tested on: NCI-H23
NCI-H460 = tested on: NCI-H460
NCI-H522 = tested on: NCI-H522
NCI/ADR-RES = tested on: NCI/ADR-RES
OVCAR-3 = tested on: OVCAR-3
OVCAR-4 = tested on: OVCAR-4
OVCAR-5 = tested on: OVCAR-5
PC-3 = tested on: PC-3
RPMI-8226 = tested on: RPMI-8226
RXF 393 = tested on: RXF 393
SF-268 = tested on: SF-268
SF-295 = tested on: SF-295
SF-539 = tested on: SF-539
SK-MEL-28 = tested on: SK-MEL-28
SK-MEL-2 = tested on: SK-MEL-2
SK-MEL-5 = tested on: SK-MEL-5
SK-OV-3 = tested on: SK-OV-3
SN12C = tested on: SN12C
SNB-19 = tested on: SNB-19
SNB-75 = tested on: SNB-75
SR = tested on: SR
SW-620 = tested on: SW-620
TK-10 = tested on: TK-10
U-251 = tested on: U-251
UACC-257 = tested on: UACC-257
UACC-62 = tested on: UACC-62
UO-31 = tested on: UO-31
HCT-15 = tested on: HCT-15
OVCAR-8 = tested on: OVCAR-8

C=C(Cl)/C(=C\Cl)CCC(Cl)C(C)C (stereo not drawn)
GI50 (786-0): > 100 µM (inactive)
GI50 (A498): > 100 µM (inactive)
GI50 (A549): > 100 µM (inactive)
GI50 (ACHN): > 100 µM (inactive)
GI50 (BT-549): > 100 µM (inactive)
GI50 (CAKI-1): > 100 µM (inactive)
GI50 (CCRF-CEM): 41.2 µM (inactive)
GI50 (COLO 205): > 100 µM (inactive)
GI50 (DU-145): > 100 µM (inactive)
GI50 (EKVX): > 100 µM (inactive)
GI50 (HCC 2998): > 100 µM (inactive)
GI50 (HCT-116): > 100 µM (inactive)
GI50 (HL-60): 56.2 µM (inactive)
GI50 (HOP-62): > 100 µM (inactive)
GI50 (HOP-92): > 100 µM (inactive)
GI50 (HT-29): > 100 µM (inactive)
GI50 (Hs-578T): > 100 µM (inactive)
GI50 (IGROV-1): > 100 µM (inactive)
GI50 (K562): 54.3 µM (inactive)
GI50 (KM12): > 100 µM (inactive)
GI50 (LOX IMVI): 35.1 µM (inactive)
GI50 (M14): 84.9 µM (inactive)
GI50 (MCF7): > 100 µM (inactive)
GI50 (MDA-MB-231): > 100 µM (inactive)
GI50 (MDA-MB-435): > 100 µM (inactive)
GI50 (MDA-N): > 100 µM (inactive)
GI50 (MOLT-4): 44.2 µM (inactive)
GI50 (Malme-3M): > 100 µM (inactive)
GI50 (NCI-H226): > 100 µM (inactive)
GI50 (NCI-H23): > 100 µM (inactive)
GI50 (NCI-H460): > 100 µM (inactive)
GI50 (NCI-H522): 59.4 µM (inactive)
GI50 (NCI/ADR-RES): > 100 µM (inactive)
GI50 (OVCAR-3): > 100 µM (inactive)
GI50 (OVCAR-4): > 100 µM (inactive)
GI50 (OVCAR-5): > 100 µM (inactive)
GI50 (PC-3): > 100 µM (inactive)
GI50 (RPMI-8226): 65.2 µM (inactive)
GI50 (RXF 393): > 100 µM (inactive)
GI50 (SF-268): > 100 µM (inactive)
GI50 (SF-295): > 100 µM (inactive)
GI50 (SF-539): > 100 µM (inactive)
GI50 (SK-MEL-28): > 100 µM (inactive)
GI50 (SK-MEL-2): > 100 µM (inactive)
GI50 (SK-MEL-5): > 100 µM (inactive)
GI50 (SK-OV-3): > 100 µM (inactive)
GI50 (SN12C): > 100 µM (inactive)
GI50 (SNB-19): > 100 µM (inactive)
GI50 (SNB-75): > 100 µM (inactive)
GI50 (SR): 56.5 µM (inactive)
GI50 (SW-620): 74.3 µM (inactive)
GI50 (TK-10): > 100 µM (inactive)
GI50 (U-251): > 100 µM (inactive)
GI50 (UACC-257): > 100 µM (inactive)
GI50 (UACC-62): > 100 µM (inactive)
GI50 (UO-31): > 100 µM (inactive)

S=C(c1c[nH]c2ccccc12)N1CCN(c2ccccc2)CC1
GI50 (786-0): 46.9 µM (inactive)
GI50 (A498): > 100 µM (inactive)
GI50 (ACHN): 87.1 µM (inactive)
GI50 (BT-549): > 100 µM (inactive)
GI50 (CAKI-1): > 100 µM (inactive)
GI50 (CCRF-CEM): > 100 µM (inactive)
GI50 (COLO 205): > 100 µM (inactive)
GI50 (DU-145): > 100 µM (inactive)
GI50 (EKVX): 19.4 µM (inactive)
GI50 (HCT-116): > 100 µM (inactive)
GI50 (HCT-15): > 100 µM
GI50 (HL-60): > 100 µM (inactive)
GI50 (HOP-62): 75.3 µM (inactive)
GI50 (HT-29): 59.6 µM (inactive)
GI50 (Hs-578T): 1.06 µM (active)
GI50 (IGROV-1): 7.11 µM (inactive)
GI50 (K562): > 100 µM (inactive)
GI50 (KM12): 82.8 µM (inactive)
GI50 (LOX IMVI): > 100 µM (inactive)
GI50 (M14): > 100 µM (inactive)
GI50 (MCF7): > 100 µM (inactive)
GI50 (MDA-MB-231): > 100 µM (inactive)
GI50 (MDA-MB-435): > 100 µM (inactive)
GI50 (MDA-N): > 100 µM (inactive)
GI50 (MOLT-4): > 100 µM (inactive)
GI50 (Malme-3M): 18.8 µM (inactive)
GI50 (NCI-H226): 7.76 µM (inactive)
GI50 (NCI-H23): > 100 µM (inactive)
GI50 (NCI-H460): > 100 µM (inactive)
GI50 (NCI/ADR-RES): 34.9 µM (inactive)
GI50 (OVCAR-3): > 100 µM (inactive)
GI50 (OVCAR-5): > 100 µM (inactive)
GI50 (OVCAR-8): 37.8 µM (inactive)
GI50 (PC-3): > 100 µM (inactive)
GI50 (RPMI-8226): > 100 µM (inactive)
GI50 (RXF 393): > 100 µM (inactive)
GI50 (SF-268): 19.8 µM (inactive)
GI50 (SF-295): 79.8 µM (inactive)
GI50 (SF-539): 71.6 µM (inactive)
GI50 (SK-MEL-28): 86.9 µM (inactive)
GI50 (SK-MEL-2): > 100 µM (inactive)
GI50 (SK-MEL-5): 80 µM (inactive)
GI50 (SK-OV-3): > 100 µM (inactive)
GI50 (SN12C): 21.8 µM (inactive)
GI50 (SNB-19): > 100 µM (inactive)
GI50 (SNB-75): 0.403 µM (active)
GI50 (SR): > 100 µM (inactive)
GI50 (SW-620): > 100 µM (inactive)
GI50 (TK-10): > 100 µM (inactive)
GI50 (U-251): 14.2 µM (inactive)
GI50 (UACC-257): > 100 µM (inactive)
GI50 (UACC-62): > 100 µM (inactive)
